Assay results from ChEMBL document CHEMBL5029192, “Novel Macrocyclic LRRK2 Inhibitors for Treating Parkinson's Disease” (ACS Med Chem Lett, 2022).
pIC50: −log10 of the molar value.

Target: Leucine-rich repeat serine/threonine-protein kinase 2 (Homo sapiens, UniProt Q5S007)
Assay: Inhibition of recombinant human LRRK2 using LRRKtide peptide and ATP as substrates incubated for 1 hrs by ADP-glo luminescent assay

Leucine-rich repeat serine/threonine-protein kinase 2, sequence (Q5S007 whole entry): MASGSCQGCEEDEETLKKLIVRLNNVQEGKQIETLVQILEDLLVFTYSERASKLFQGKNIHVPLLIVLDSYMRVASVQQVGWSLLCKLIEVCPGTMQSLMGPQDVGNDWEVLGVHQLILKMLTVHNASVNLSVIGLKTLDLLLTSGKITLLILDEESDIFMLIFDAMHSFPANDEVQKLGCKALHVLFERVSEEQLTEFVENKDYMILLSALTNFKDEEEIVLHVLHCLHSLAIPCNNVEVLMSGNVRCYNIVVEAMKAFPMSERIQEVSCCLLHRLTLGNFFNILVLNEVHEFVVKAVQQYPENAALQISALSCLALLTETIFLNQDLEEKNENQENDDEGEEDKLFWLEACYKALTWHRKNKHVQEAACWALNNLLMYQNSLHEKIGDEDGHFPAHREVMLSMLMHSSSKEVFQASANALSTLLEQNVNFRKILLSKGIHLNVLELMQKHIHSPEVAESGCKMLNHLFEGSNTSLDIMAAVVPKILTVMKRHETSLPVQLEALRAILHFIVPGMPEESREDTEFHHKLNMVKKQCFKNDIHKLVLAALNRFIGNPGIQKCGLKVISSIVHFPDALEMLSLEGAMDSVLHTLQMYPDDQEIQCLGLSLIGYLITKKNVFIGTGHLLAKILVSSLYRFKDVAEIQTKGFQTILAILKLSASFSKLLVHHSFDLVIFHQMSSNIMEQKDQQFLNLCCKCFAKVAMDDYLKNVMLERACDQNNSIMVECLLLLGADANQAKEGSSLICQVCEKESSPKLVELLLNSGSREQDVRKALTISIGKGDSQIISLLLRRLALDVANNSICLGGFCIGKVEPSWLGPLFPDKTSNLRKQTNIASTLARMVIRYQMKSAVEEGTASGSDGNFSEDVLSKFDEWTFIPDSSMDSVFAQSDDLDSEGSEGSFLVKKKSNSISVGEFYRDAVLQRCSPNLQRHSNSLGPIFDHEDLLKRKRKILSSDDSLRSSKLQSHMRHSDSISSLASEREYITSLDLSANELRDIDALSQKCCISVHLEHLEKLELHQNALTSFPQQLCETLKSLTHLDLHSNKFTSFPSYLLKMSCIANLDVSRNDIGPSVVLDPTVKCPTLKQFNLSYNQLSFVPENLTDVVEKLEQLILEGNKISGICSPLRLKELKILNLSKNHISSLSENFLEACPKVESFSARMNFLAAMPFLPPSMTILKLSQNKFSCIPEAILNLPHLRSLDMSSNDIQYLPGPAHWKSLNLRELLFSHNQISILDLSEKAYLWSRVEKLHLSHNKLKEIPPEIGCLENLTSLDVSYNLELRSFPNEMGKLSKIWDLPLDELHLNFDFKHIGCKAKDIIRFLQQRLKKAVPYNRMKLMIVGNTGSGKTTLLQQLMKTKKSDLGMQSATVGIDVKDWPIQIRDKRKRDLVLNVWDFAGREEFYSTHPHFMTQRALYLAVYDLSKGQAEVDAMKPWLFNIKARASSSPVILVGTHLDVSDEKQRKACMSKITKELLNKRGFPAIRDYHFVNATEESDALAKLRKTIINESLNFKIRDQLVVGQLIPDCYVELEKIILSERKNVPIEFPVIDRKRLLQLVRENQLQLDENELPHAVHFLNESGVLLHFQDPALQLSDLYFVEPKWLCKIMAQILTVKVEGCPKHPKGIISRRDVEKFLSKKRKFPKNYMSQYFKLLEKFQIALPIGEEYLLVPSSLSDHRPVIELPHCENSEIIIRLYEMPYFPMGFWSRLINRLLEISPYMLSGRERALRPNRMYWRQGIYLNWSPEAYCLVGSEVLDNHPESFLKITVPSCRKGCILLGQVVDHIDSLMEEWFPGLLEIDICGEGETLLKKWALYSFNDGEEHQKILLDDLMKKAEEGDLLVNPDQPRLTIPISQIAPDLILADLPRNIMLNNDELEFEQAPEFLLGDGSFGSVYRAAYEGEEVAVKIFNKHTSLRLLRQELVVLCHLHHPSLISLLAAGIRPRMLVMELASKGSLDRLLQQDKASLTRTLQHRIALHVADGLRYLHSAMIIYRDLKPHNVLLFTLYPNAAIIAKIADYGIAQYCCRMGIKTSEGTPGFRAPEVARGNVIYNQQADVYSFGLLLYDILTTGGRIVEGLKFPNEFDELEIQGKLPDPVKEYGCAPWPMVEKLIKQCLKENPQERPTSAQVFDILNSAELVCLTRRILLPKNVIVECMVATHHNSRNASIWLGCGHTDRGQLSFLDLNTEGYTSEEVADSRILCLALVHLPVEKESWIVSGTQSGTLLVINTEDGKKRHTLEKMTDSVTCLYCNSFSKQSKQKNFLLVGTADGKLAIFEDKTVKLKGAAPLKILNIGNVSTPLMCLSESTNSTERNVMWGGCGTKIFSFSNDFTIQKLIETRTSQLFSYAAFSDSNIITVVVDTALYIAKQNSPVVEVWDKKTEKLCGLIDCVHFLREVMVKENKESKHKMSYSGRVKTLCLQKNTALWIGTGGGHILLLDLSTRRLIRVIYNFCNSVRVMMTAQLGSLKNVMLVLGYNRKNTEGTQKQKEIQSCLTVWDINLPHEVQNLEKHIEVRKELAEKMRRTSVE

pIC50, > 8.00:
O=C1NCCCOc2ccc3[nH]nc(c3c2)-c2cc(cc(N3CCN(C4COC4)CC3)c2)CO1
O=C1NCCCOc2ccc3[nH]nc(c3c2)-c2cc(cc(N3CCC(N4CCOCC4)CC3)c2)CO1
O=C1NCCCOc2ccc3[nH]nc(c3c2)-c2ccc(C3CC3)c(c2)CO1
O=C1NCCCOc2ccc3[nH]nc(c3c2)-c2cc(cc(N3CCC4(COC4)C3)c2)CO1
O=C1NCCCOc2ccc3[nH]nc(c3c2)-c2csc(n2)CCO1
O=C1NCCCOc2ccc3[nH]nc(c3c2)-c2cc(cc(N3CCC(N4CCCC4)CC3)c2)CO1
